Values quoted from earlier work in EP0475894A1, “Gemfibrozil formulations” (WARNER-LAMBERT COMPANY, priority 1990, dated 1992).

Conditions: particularly in a highly acidic medium

- solubility in water: very poor solubility in water
SMILES: Cc1ccc(C)c(OCCCC(C)(C)C(=O)O)c1 [Gemfibrozil, 5-(2,5-dimethylphenoxy)-2,2-dimethylpentanoic acid]
